Experiments:
[1] = refractive index (Na D-line) (dimensionless); mn = molality of the nth substance listed, in mol/kg; details: 298.15 K, 101 kPa, Liquid, Standard Abbe refractometry
[2] = mn = molality of the nth substance listed, in mol/kg; details: 101 kPa, Liquid; for viscosity: Capillary tube (Ostwald / Ubbelohde) method; for mass density: Vibrating tube method

CCO [ethanol] + O
[1]
Details	refractive index
m1 = 14	1.355
m1 = 16	1.3564
m1 = 18	1.3575
m1 = 20	1.3583
m1 = 22	1.3585

[2]
Details	mass density, 293.15 K [kg/m3]	mass density, 298.15 K [kg/m3]	mass density, 303.15 K [kg/m3]	mass density, 308.15 K [kg/m3]	mass density, 313.15 K [kg/m3]	viscosity, 293.15 K [mPa·s]	viscosity, 298.15 K [mPa·s]	viscosity, 303.15 K [mPa·s]	viscosity, 308.15 K [mPa·s]	viscosity, 313.15 K [mPa·s]
m1 = 14	936.706	933.024	929.265	925.437	921.529	2.895	2.35	1.97	1.673	1.44
m1 = 16	930.583	926.799	922.942	919.015	915.018	2.9	2.363	1.988	1.69	1.456
m1 = 18	924.182	920.298	916.351	912.337	908.255	2.889	2.365	1.99	1.695	1.462
m1 = 20	918.792	914.849	910.842	906.77	–	2.878	2.371	1.999	1.704	1.475
m1 = 22	913.462	909.466	905.406	901.281	–	2.862	2.352	1.989	1.7	1.469

CCCO [propan-1-ol] + O
[1]
Details	refractive index
m1 = 14	1.364
m1 = 16	1.3654
m1 = 18	1.367
m1 = 20	1.368
m1 = 22	1.3695

[2]
Details	mass density, 293.15 K [kg/m3]	mass density, 298.15 K [kg/m3]	mass density, 303.15 K [kg/m3]	mass density, 308.15 K [kg/m3]	mass density, 313.15 K [kg/m3]	viscosity, 293.15 K [mPa·s]	viscosity, 298.15 K [mPa·s]	viscosity, 303.15 K [mPa·s]	viscosity, 308.15 K [mPa·s]	viscosity, 313.15 K [mPa·s]
m1 = 14	918.103	914.486	910.811	907.075	903.277	3.11	2.599	2.193	1.88	1.626
m1 = 16	911.211	907.532	903.797	899.995	896.13	3.151	2.637	2.23	1.906	1.648
m1 = 18	905.417	901.687	897.899	894.048	890.133	3.176	2.663	2.255	1.93	1.67
m1 = 20	899.512	895.724	891.885	887.984	884.02	3.178	2.671	2.263	1.938	1.679
m1 = 22	895.376	891.557	887.682	883.751	879.756	–	–	–	–	–
